Results taken from patent publication US20060063784A1, “Method of using substituted pyrazolo [1,5-a] pyrimidines” (priority 2004, published 2006).

tested on: 80S14 (p21-deficient) cells; experiment: Cytotoxicity assay using isogenic cell lines: IC50 in 80S14 (p21-deficient) cells, SRB; assay type: cell-based, human; details: 80S14 (p21-deficient) cells, 5 days, SRB; class symbols; read-out: IC50 for 80S14
How it was run: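 80S14 (p21-deficient) cells seeded at 12,000 cells/well overnight, then exposed 5 days at 37 °C to serial dilutions (5 pM–50 μM or 170 pg/ml–10 μg/ml). TCA-fixed, sulforhodamine B-stained, absorbance at 560 nm; IC50 taken from cytotoxicity curves versus untreated controls.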

First: C#CCN(C(=O)C1CC1)c1cccc(-c2ccnc3c(C(=O)OCC)cnn23)c1 [Example 258, Ethyl 7-[3-[(cyclopropylcarbonyl)-2-propynylamino]phenyl]-pyrazolo[1,5-a]pyrimidine-3-carboxylic acid]
Second: Cc1cc(-c2cccc(NC(=O)C3CO3)c2)n2ncc(C(=O)c3cccs3)c2n1 (centres unmarked) [Example 278, {3-[5-Methyl-3-(2-thienylcarbonyl)pyrazolo[1,5-a]pyrimidin-7-yl]phenyl}-2-oxiranecarboxamide]
The IC50 of the first is higher: 10 to 50 µM for the first, < 1 µM for the second. The second is the more potent here.

For “3.5-Dinitro-N-{3-[3-(2-thienylcarbonyl)pyrazolo[1,5-a]pyrimidin-7-yl]phenyl}benzamide [Example 288]”, the IC50 was 10 to 50 µM.

same assay, conditions: 80S14 p21-deficient cells, 5 days incubation, SRB; read-out: IC50 for 80SI4

`O=C(c1cccs1)c1cnn2c(-c3cccc(NC(=O)[C@@H]4CCCN4C(=O)C(F)(F)F)c3)ccnc12` [Example 52] and `N[C@H](C(=O)Nc1cccc(-c2ccnc3c(C(=O)c4cccs4)cnn23)c1)C1CCCCC1` [Example 86] fall in the same range of IC50: 1 to 10 µM for the first, 1 to 10 µM for the second.

Compared with `CCC(C)C(=O)Nc1cccc(-c2ccnc3c(C(=O)c4cccs4)cnn23)c1` (centres unmarked) [Example 145], `C/C=C/C(=O)Nc1cccc(-c2ccnc3c(C(=O)c4cccs4)cnn23)c1` [Example 149, (2E)-N-{3-[3-(thien-2-ylcarbonvl)pyrazolo[1,5-a]pyrimidin-7-yl]phenyl}but-2-enamide] is higher in IC50: < 1 µM for the first, 1 to 10 µM for the second. The first is the more potent here.

`O=C(Nc1cccc(-c2ccnc3c(C(=O)c4cccs4)cnn23)c1)OCC(Cl)(Cl)Cl` [Example 18, 2,2,2-trichlroethyl 3-[3-(thien-2-ylcarbonyl)pyrazolo[1,5-a]pyrimidin-7-yl]phenylcarbamate] and `O=C(c1cccs1)c1cnn2c(-c3cccc(NC(=O)C45CC6CC(CC(C6)C4)C5)c3)ccnc12` [Example 53, N-{3-[3-(thien-2-ylcarbonyl)pyrazolo[1,5-a]pyrimidin-7-Yl]phenyl}adamantine-1-carboxamide] cannot be ordered by IC50: < 1 µM for the first, < 1 µM for the second.

same assay, conditions: Homo sapiens, 80S14, 120 h, read-out: IC50 for 80S14 (uM)

`CC(=O)Nc1cccc(-c2ccnc3c(C(=O)c4cccs4)cnn23)c1` [Example 250, N-[3-[3-(2-Thienylcarbonyl)pyrazolo[1,5-a]pyrimidin-7-yl]phenyl}-acetamide] and `Cc1ccc(-c2ccnc3c(C(=O)c4cccs4)cnn23)cc1NC(=O)CC(C)C` [Example 310, 3-Methyl-N-{2-methyl-5-[3-(2-thienylcarbonyl)pyrazolo[1,5-a]pyrimidin-7-yl]phenyl}butanamide] fall in the same range of IC50: 1 to 10 µM for the first, 1 to 10 µM for the second.

same assay, conditions: Homo sapiens, 120 h; 80S14 (p21-deficient) cells, 5 days, SRB; class symbols; read-out: IC50 for 80S14

`Cc1ccc(-c2ccnc3c(C(=O)c4cccs4)cnn23)cc1NC(=O)c1ccccc1` [Example 309, N-{2-Methyl-5-[3-(2-thienylcarbonyl)pyrazolo[1,5-a]pyrimidin-7-yl]phenyl}benzamide] and `COc1ccc(-c2ccnc3c(C(=O)c4cccs4)cnn23)cc1NC(=O)c1ccccc1` [Example 315, N-{2-Methoxy-5-[3-(2-thienylcarbonyl)pyrazolo[1,5-a]pyrimidin-7-yl]phenyl}benzamide] fall in the same range of IC50: 1 to 10 µM for the first, 1 to 10 µM for the second.

`O=C(Nc1cccc(-c2ccnc3c(C(=O)c4cccs4)cnn23)c1)c1cc(C(F)(F)F)ccc1C(F)(F)F` [Example 280, N-{3-[3-(2-Thienylcarbonyl)pyrazolo[1,5-a]pyrimidin-7-yl]phenyl}-2,5-bis(trifluoromethyl)benzamide] and `COc1cc(/C=C/CNc2cccc(-c3ccnc4c(C(=O)c5cccs5)cnn34)c2)ccc1O` [Example 401, [7-(3-{[(2E)-3-(4-Hydroxy-3-methoxyphenyl)prop-2-enyl]amino}phenyl)pyrazolo[1,5-a]pyrimidin-3-yl](thien-2-yl)methanone] fall in the same range of IC50: 10 to 50 µM for the first, 10 to 50 µM for the second.

Compared with `CCC(CC)CNc1cccc(-c2ccnc3c(C(=O)c4cccs4)cnn23)c1` [Example 403, (7-{3-[(2-Ethylbutyl)amino]phenyl}pyrazolo[1,5-a]pyrimidin-3-yl)(thien-2-yl)methanone], `COC(=O)c1cccc(-c2ccnc3c(C(=O)c4cccs4)cnn23)c1` [Example 306, Methyl 3-[3-(2-thienylcarbonyl)pyrazolo[1,5-a]pyrimidin-7-yl]benzoate] is higher in IC50: 1 to 10 µM for the first, 10 to 50 µM for the second. The first is the more potent here.

First: CN(C(=O)C1CCC1)c1cccc(-c2ccnc3c(C(=O)c4ccccc4)cnn23)c1 [Example 232, N-[3-(3-Benzoylpyrazolo-[1,5-a]pyrimidin-7-yl)phenyl]-N-methylcyclobutanecarboxamide]
Second: O=C(c1cccs1)c1cnn2c(-c3cccc(-n4cccc4)c3)ccnc12 [Example 270, [7-[3-(1H-Pyrrol-1-yl)phenyl]pyrazolo[1,5-a]pyrimidin-3-yl]-2-thienyl-methanone]
The IC50 of the first is higher: 10 to 50 µM for the first, 1 to 10 µM for the second. The second is the more potent here.

For `CC(C)COC(=O)Nc1cccc(-c2ccnc3c(Br)cnn23)c1` [Example 327, Isobutyl 3-(3-bromopyrazolo[1,5-a]pyrimidin-7-yl)phenylcarbamate], the IC50 was 10 to 50 µM.

same assay, conditions: Homo sapiens, 120 h; 80S14 p21-deficient cells, 5 days incubation, SRB; read-out: IC50 for 80SI4

First: O=C(CCC1CCCC1)Nc1cccc(-c2ccnc3c(C(=O)c4cccs4)cnn23)c1 [Example 146, 3-cyclopentyl-N-{3-[3-(thien-2-ylcarbonyl)pyrazolo[1,5-a]pyrimidin-7-yl]phenyl}propanamide]
Second: O=C(CC1CCCC1)Nc1cccc(-c2ccnc3c(C(=O)c4cccs4)cnn23)c1 [Example 73, 2-cyclopentyl-N-{3-[3-(thien-2-ylcarbonyl)pyrazolo[1,5-a]pyrimidin-7-yl]phenyl}acetamide]
The IC50 of the first is higher: 1 to 10 µM for the first, < 1 µM for the second. The second is the more potent here.

`CCCCCCCOc1ccc(C(=O)Nc2cccc(-c3ccnc4c(C(=O)c5cccs5)cnn34)c2)cc1` [Example 91, 4-(heptyloxy)-N-{3-[3-(thien-2-ylcarbonyl)pyrazolo[1,5-a]pyrimidin-7-yl]phenyl}benzamide] and `O=C(Nc1cccc(-c2ccnc3c(C(=O)c4cccs4)cnn23)c1)c1ccc2ccccc2c1` [Example 104, N-{3-[3-(thien-2-ylcarbonyl)pyrazolo[1,5-a]pyrimidin-7-yl]phenyl}-2-naphthamide] fall in the same range of IC50: 10 to 50 µM for the first, 10 to 50 µM for the second.

Compared with `COCC(=O)Nc1cccc(-c2ccnc3c(C(=O)c4cccs4)cnn23)c1` [Example 61, 2-methoxy-N-{3-[3-(thien-2-ylcarbonyl)pyrazolo[1,5-a]pyrimidin-7-yl]phenyl]acetamide], `COC(=O)CCC(=O)Nc1cccc(-c2ccnc3c(C(=O)c4cccs4)cnn23)c1` [Example 42, methyl 4-oxo-4-({3-[3-(thien-2-ylcarbonyl)pyrazolo[1,5-a]pyrimidin-7-yl]phenyl}amino)butanoate] is higher in IC50: 1 to 10 µM for the first, 10 to 50 µM for the second. The first is the more potent here.

`CC(OC(=O)Nc1cccc(-c2ccnc3c(C(=O)c4cccs4)cnn23)c1)C1CC1` (centres unmarked) [Example 190, 1-cyclopropylethyl 3-[3-(thien-2-ylcarbonyl)pyrazolo[1,5-a]pyrimidin-7-yl]phenylcarbamate] and `CC(C)=CC(=O)Nc1cccc(-c2ccnc3c(C(=O)c4cccs4)cnn23)c1` [Example 45, 3-methyl-N-{3-[3-(thien-2-ylcarbonyl)pyrazolo[1,5-a]pyrimidin-7-yl]phenyl}but-2-enamide] cannot be ordered by IC50: < 1 µM for the first, < 1 µM for the second.

First: O=C(Nc1cccc(-c2ccnc3c(C(=O)c4cccs4)cnn23)c1)c1ccc(F)c(F)c1 [Example 102, 3,4-difluoro-N-{3-[3-(thien-2-ylcarbonyl)pyrazolo[1,5-a]pyrimidin-7-yl]phenyl}benzamide]
Second: CC(CC(=O)Nc1cccc(-c2ccnc3c(C(=O)c4cccs4)cnn23)c1)C(F)(F)F (centres unmarked) [Example 59, 4,4,4-trifluoro-3-methyl-N-{3-[3-(thien-2-ylcarbonyl)pyrazolo[1,5-a]pyrimidin-7-yl]phenyl}butanamide]
The IC50 of the first is higher: 1 to 10 µM for the first, < 1 µM for the second.

First: O=C(Nc1cccc(-c2ccnc3c(C(=O)c4cccs4)cnn23)c1)OCCN1CCCCC1 [Example 180, 2-piperidin-1-ylethyl 3-[3-(thien-2-ylcarbonyl)pyrazolo[1,5-a]pyrimidin-7-yl]phenylcarbamate]
Second: O=C(Nc1cccc(-c2ccnc3c(C(=O)c4cccs4)cnn23)c1)OCCN1CCOCC1 [Example 181, 2-morpholin-4-ylethyl 3-[3-(thien-2-ylcarbonyl)pyrazolo[1,5-a]pyrimidin-7-yl]phenylcarbamate]
The IC50 of the first is higher: 1 to 10 µM for the first, < 1 µM for the second. The second is the more potent here.

`CN1CCN(C(=O)Nc2cccc(-c3ccnc4c(C(=O)c5cccs5)cnn34)c2)CC1` [Example 166, 4-methyl-N-{3-[3-(thien-2-ylcarbonyl)pyrazolo[1,5-a]pyrimidin-7-yl]phenyl}piperazine-1-carboxamide] and `CCCCC(CC)C(=O)Nc1cccc(-c2ccnc3c(C(=O)c4cccs4)cnn23)c1` (centres unmarked) [Example 147, 2-ethyl-N-{3-[3-(thien-2-ylcarbonyl)pyrazolo[1,5-a]pyrimidin-7-yl}phenyl}hexanamide] fall in the same range of IC50: 1 to 10 µM for the first, 1 to 10 µM for the second.

First: O=C(CNC(=O)C1CCC1)Nc1cccc(-c2ccnc3c(C(=O)c4cccs4)cnn23)c1 [Example 127, N-[2-oxo-2-({3-[3-(thien-2-ylcarbonyl)pyrazolo[1,5-a]pyrimidin-7-yl]phenyl}amino)ethyl]cyclobutanecarboxamide]
Second: CN(C)S(=O)(=O)Nc1cccc(-c2ccnc3c(C(=O)c4cccs4)cnn23)c1 [Example 40, N,N-dimethyl-N′-{3-[3-(thien-2-ylcarbonyl)pyrazolo[1,5-a]pyrimidin-7-yl]phenyl}sulfamide]
The IC50 of the first is higher: 10 to 50 µM for the first, 1 to 10 µM for the second. The second is the more potent here.

Compared with `Cc1cnc2c(C(=O)c3cccs3)cnn2c1-c1cccc(NC(=O)c2cccnc2)c1` [Example 220, N-{3-[6-methyl-3-(thien-2-ylcarbonyl)pyrazolo[1,5-a]pyrimidin-7-yl]phenyl}nicotinamide], `O=C(c1cccs1)c1cnn2c(-c3cccc(NS(=O)(=O)c4ccccc4)c3)ccnc12` [Example 31, N-{3-[3-(thien-2-ylcarbonyl)pyrazolo[1,5-a]pyrimidin-7-yl]phenyl}benzenesulfonamide] is lower in IC50: 10 to 50 µM for the first, 1 to 10 µM for the second.
